Experimental data published in patent publication US5919653A, “Nucleic acids encoding a human glycine transporter” (Allelix Neuroscience Inc., priority 1996, dated 1999).

Target: human GlyT-2 glycine transporter (clone pHGT2, SEQ ID 20 nucleic acid / SEQ ID 21 protein) (Homo sapiens, UniProt Q9Y345, I279N/I611V)
Experiment: cell-based
Description: Transient GlyT-transfected cells or control cells grown in accordance with Example 5 were washed three times with HEPES buffered saline (HBS). The control cells were treated precisely as the GlyT-transfected cells except that the transfection procedure omitted any cDNA. […] The cells were then incubated another 20 minutes at 37° C., after which the cells were washed three times with ice-cold HBS. Scintillant was added to the cells, the cells were shaken for 30 minutes, and the radioactivity in the cells was counted using a scintillation counter. Data were compared between the cells contacted or not contacted by a prospective agent, and, where relevant, between cells having GlyT-1 activity versus cells having GlyT-2 activity, depending on the assay being conducted.
Data points represent means±SEM from an experiment performed in quadruplicate.

Chain of human GlyT-2 glycine transporter (clone pHGT2, SEQ ID 20 nucleic acid / SEQ ID 21 protein) (Q9Y345 whole entry I279N/I611V): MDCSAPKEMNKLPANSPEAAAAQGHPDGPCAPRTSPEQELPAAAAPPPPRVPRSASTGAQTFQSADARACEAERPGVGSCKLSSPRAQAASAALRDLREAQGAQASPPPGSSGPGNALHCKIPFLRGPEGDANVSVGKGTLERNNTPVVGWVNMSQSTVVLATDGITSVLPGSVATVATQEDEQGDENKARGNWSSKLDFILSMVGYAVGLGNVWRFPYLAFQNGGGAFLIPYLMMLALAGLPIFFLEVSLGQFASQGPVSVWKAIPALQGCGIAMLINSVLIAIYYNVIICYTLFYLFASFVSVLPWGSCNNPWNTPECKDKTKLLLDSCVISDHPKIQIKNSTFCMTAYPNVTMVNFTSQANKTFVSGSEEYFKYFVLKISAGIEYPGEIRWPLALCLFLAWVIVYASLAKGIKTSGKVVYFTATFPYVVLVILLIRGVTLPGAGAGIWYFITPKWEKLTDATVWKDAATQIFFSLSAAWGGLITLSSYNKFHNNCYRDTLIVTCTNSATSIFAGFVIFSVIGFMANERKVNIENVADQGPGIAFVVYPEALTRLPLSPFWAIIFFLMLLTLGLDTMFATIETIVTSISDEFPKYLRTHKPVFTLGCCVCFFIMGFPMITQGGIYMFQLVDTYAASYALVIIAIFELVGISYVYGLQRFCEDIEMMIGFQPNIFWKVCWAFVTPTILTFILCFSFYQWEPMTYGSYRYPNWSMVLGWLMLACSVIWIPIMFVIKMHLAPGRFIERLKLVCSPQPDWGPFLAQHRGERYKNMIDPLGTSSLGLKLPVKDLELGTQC

IC50: 40 µM
Structure (SMILES): NCC(=O)O [glycine]
